Measurements reported in patent publication US5955520A, “Photochromic indeno-fused naphthopyrans” (PPG Industries, Inc., priority 1996, dated 1999).

Experiments:
[1] = photochromic response rates on an optical bench (test squares); type: physicochemical; conditions: for ΔOD @ Saturation: UV exposure continued for 20 minutes; for ΔOD @ Saturation / Sensitivity ΔOD/min: polymer test square, 75° F.; for Sensitivity ΔOD/min: first five (5) seconds of UV exposure, expressed per minute, 1.5 times 10^-3 molal; for Bleach Rate T 1/2: time for absorbance to reach one half the highest absorbance after removal of activating light, room temperature (75° F., 23.9° C.)
Experimental: (§1) Testing was done with the Example 1 and Comparative Example 1 photochromic naphthopyrans incorporated into polymeric samples by the following method. The quantity of naphthopyran calculated to yield a 1.5 times 10^-3 molal solution was added to a flask containing 50 grams of a monomer blend of 4 parts ethoxylated bisphenol A dimethacrylate (BPA 2EO DMA), 1 part poly(ethylene glycol) 600 dimethacrylate, and 0.033 weight percent 2,2'-azobis(2-methyl proprionitrile) (AIBN). The naphthopyran was dissolved into the monomer blend by stirring and gentle heating, if necessary. After a clear solution was obtained, it was poured into a flat sheet mold having the interior dimensions of 2.2 mm×6 inches (15.24 cm)×6 inches (15.24 cm). The mold was sealed and placed in a horizontal air flow, programmable oven set to increase the temperature from 40° C. to 95° C. over a 5 hour interval, hold the temperature at 95° C. for 3 hours and then lower it to 60° C., for at least 2 hours before the end of the curing cycle. After the mold was opened, the polymer sheet was cut using a diamond blade saw into 2 inch (5.1 centimeters) test squares.
The photochromic test squares of Part A were tested for photochromic response rates on an optical bench. Prior to testing on the optical bench, the photochromic test squares were exposed to 365 nanometer ultraviolet light for about 15 minutes to activate the photochromic compounds and then placed into a 76° C. oven for about 15 minutes to bleach the photochromic compounds. The test squares were then cooled to room temperature, exposed to fluorescent room lighting for at least 2 hours and then kept covered for at least 2 hours prior to testing on an optical bench maintained at 75° F. (23.90° C.).
The optical bench comprises a 150 watt Xenon arc lamp, a tungsten lamp, power supplies for both lamps, condensing lenses as needed to maintain collimated light beams from both lamps, a remote controlled shutter, a copper sulfate bath acting as a heat sink for the arc lamp, a Schott WG-320 nm cut-off filter which removes short wavelength radiation, neutral density filter(s), a sample holder in which the sample to be tested is inserted, a photopic filter, light detector, and radiometer assembly, a strip chart recorder, and a means for maintaining the alignment of the aforestated components during testing.
Change in optical density (Δ OD) of a sample was determined by inserting a photochromic test sample in the bleached state into the sample holder, adjusting the transmittance scale to 100%, opening the shutter from the Xenon lamp to provide ultraviolet radiation to change the sample from the bleached state to an activated (darkened) state, measuring the transmittance through the sample. The transmittance was measured by directing a beam of light from the tungsten lamp at a small angle normal to the surface of the sample, through the sample, and to a photopic filter, light detector and radiometer assembly. The photopic filter passes wavelengths such that the detector mimics the response of the human eye and produces output signals that are processed by the radiometer. The change in optical density was calculated according to the formula Δ OD=log(100/%Ta) where %Ta is the percent transmittance in the activated state and the logarithm is to the base 10.
The Δ OD/Min, which represents the sensitivity of the photochromic compound's response to UV light, was measured over the first five (5) seconds of UV exposure, then expressed on a per minute basis. The saturation optical density (OD) was taken under identical conditions as the Δ OD/Min, except UV exposure was continued for 20 minutes. The lambda max (Vis) is the wavelength in the visible spectrum at which the maximum absorption of the activated (colored) form of the photochromic compound in the test square occurs. […]

[2] = UV/Visible spectrophotometer test of photochromic test squares (lambda max, molal absorptivity); type: physicochemical; conditions: for λ max Vis (major) / λ max Vis (minor): activated (colored) form; for λ max Vis (major): major peak; for λ max Vis (major) / λ max Vis (minor) / Molal Absorpt. (ε) / λ max UV: test square; for λ max Vis (minor): minor peak; for Molal Absorpt. (ε): at λ max in the UV, ε=A/bm; for λ max UV: ultraviolet wavelength closest to the visible spectrum
Experimental: as §1
The photochromic test square polymerizates of Example 1 and Comparative Example 1 prepared in Part A were tested in a UV/Visible spectrophotometer to determine the lambda (λ) max (Vis) and the lambda max (UV) wavelengths. The lambda max (Vis) is the wavelength of the visible spectrum at which the maximum absorption of the activated (colored) form of the photochromic compound in a test square occurs. The lambda max (UV) is the wavelength of the ultraviolet range closest to the visible spectrum at which the absorption of the photochromic compound occurs.
The molal absorptivity or molal extinction coefficient (ε) reported in Table 2 is equal to the absorbance of the photochromic compound in a test square at the λ max in the UV (A) divided by the thickness of the test square in centimeters (b) multiplied by the concentration of the photochromic compound in the test square in moles per kilogram (m) according to the formula: ε=A/bm

[3] = in comparison to Comparative Example (CE) 1

bleach rate, i.e., fade rate (in words) [1]	ΔOD @ Saturation [1]	Sensitivity ΔOD/min [1]	sensitivity, i.e., coloration rate (in words) [1, 3]	Δ OD at saturation, i.e., activated intensity (in words) [1, 3]	Bleach Rate T 1/2 [1] [min]	λ max Vis (major) [2] [nm]	λ max Vis (minor) [2] [nm]	Molal Absorpt. (ε) [2]	molal absorptivity (ε) in the UV spectrum (in words) ([2]; in comparison to CE 1)	λ max UV [2] [nm]	Structure (SMILES)	λ max UV and λ max Vis of the major peak (in words) ([2]; in comparison to CE 1, bathochromic shift)
acceptable bleach rate	1.0	0.34 ΔOD/min	greater sensitivity	higher Δ OD at saturation	5.63	536	425	12,218	higher molal absorptivity	360	CCOC(=O)CC1(O)c2ccccc2-c2c1c1c(c3ccccc23)OC(c2ccccc2)(c2ccccc2)C=C1 (stereo not shown) [Example 1, 3,3-diphenyl-13-hydroxy-13-(2-oxo-2-ethoxyethyl)-1H-indeno[2,1-f]naphtho[1,2-b] pyran]	higher λ max UV and λ max Vis of the major peak
–	0.68	0.19 ΔOD/min	–	–	3.83	482	407	5709	–	346	COC(=O)c1c2c(c3ccccc3c1-c1ccccc1)OC(c1ccccc1)(c1ccccc1)C=C2 [CE 1, 2,2-diphenyl-5-methoxycarbonyl-6-phenyl-[2H]-naphtho[1,2-b]pyran, reference compound]	–
